Earlier results in patent publication US20250186473A1, “Compositions and Methods for Treating Kidney Disease” (Neukidney Incorporated, priority 2023, published 2025).

Tested on: CKD in rat models
Details: oral supplementation, BUN, serum creatinine, fibrosis

Compound: NC(=O)c1cccnc1 [Nicotinamide]
- effect on progression of CKD: attenuated progression of CKD
